Assay results taken from publication PMC6770577, “TRPM6 N-Terminal CaM- and S100A1-Binding Domains” (International Journal of Molecular Sciences, 2019).

Molecular target: T1, S100A1 (Homo sapiens, UniProt P23297)
T1 construct: made in house; host or cells: E. coli BL21
T1 sequence (P23297 1-94): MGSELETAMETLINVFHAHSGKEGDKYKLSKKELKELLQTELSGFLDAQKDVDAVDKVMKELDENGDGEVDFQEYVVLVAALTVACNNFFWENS
Experiment: Steady-state fluorescence anisotropy binding assay, FITC-labelled TRPM6np peptides titrated with S100A1
Conditions: 1 μM N-terminally FITC-labelled peptide titrated with 100 μM S100A1, 50 mM Tris-HCl pH 7.5, 150 mM NaCl, 2 mM CaCl2, room temperature, at least five measurements, read-out: KD, equilibrium dissociation constant of the TRPM6np/S100A1 complex
Method: Steady-state fluorescence anisotropy experiments were performed at room temperature on a photon counting spectrometer PC1 (ISS Inc., Champaign, Illinois, USA). TRPM6npWT and its mutants were dissolved in a buffer containing 50 mM Tris-HCl (pH 7.5), 150 mM NaCl, and 2 mM CaCl2 for a final concentration of 1 μM. The samples were titrated in a 2-mm path cuvette with increasing aliquots of 100 μM CaM or S100A1. Fluorescence was excited at 495 nm; the intensity of emission in parallel (III) and perpendicular (I﬩) orientations to the direction of the polarised excitation was obtained at 520 nm by switching the emission polariser. The steady-state fluorescence anisotropy value (r) was calculated from the equation r = (III − I﬩) / (III + 2I﬩). […] Q represents the quantum yield ratio of the bound to the free peptide, calculated from fluorescence lifetimes (τ) according to equation Q = τbound/τfree. […]
Lifetimes were evaluated at room temperature in a drop placed on a coverslip and inserted into an inverted confocal microscope IX83 (Olympus, Tokyo, Japan) equipped with time-correlated single photon counting electronics and cooled GaAsP hybrid detectors (all PicoQuant, Berlin, Germany). […] fluorescence was excited at 485 nm by an LDH-485 picosecond laser (PicoQuant, Berlin, Germany). […]

Structure (SMILES)	Kd
CC[C@H](C)[C@H](NC(=O)[C@H](CC(C)C)NC(=S)Nc1ccc2c(c1)C(=O)OC21c2ccc(O)cc2Oc2cc(O)ccc21)C(=O)NCC(=O)N[C@@H](CCCNC(=N)N)C(=O)N[C@@H](C)C(=O)N[C@@H](Cc1ccc(O)cc1)C(=O)N[C@@H](CCCNC(=N)N)C(=O)N[C@@H](CO)C(=O)N[C@@H](CC(N)=O)C(=O)N[C@@H](Cc1ccc(O)cc1)C(=O)N[C@H](C(=O)N[C@@H](C)C(=O)N[C@@H](C)C(=O)N[C@@H](Cc1c[nH]cn1)C(=O)N[C@@H](Cc1ccccc1)C(=O)N[C@@H](CCCNC(=N)N)C(=O)O)[C@@H](C)O [K532A/R531A]	50.2 µM
CC[C@H](C)[C@H](NC(=O)[C@H](CC(C)C)NC(=S)Nc1ccc2c(c1)C(=O)OC21c2ccc(O)cc2Oc2cc(O)ccc21)C(=O)NCC(=O)N[C@@H](CCCNC(=N)N)C(=O)N[C@@H](C)C(=O)N[C@@H](Cc1ccc(O)cc1)C(=O)N[C@@H](CCCNC(=N)N)C(=O)N[C@@H](CO)C(=O)N[C@@H](CC(N)=O)C(=O)N[C@@H](Cc1ccc(O)cc1)C(=O)N[C@H](C(=O)N[C@@H](CCCNC(=N)N)C(=O)N[C@@H](C)C(=O)N[C@@H](Cc1c[nH]cn1)C(=O)N[C@@H](Cc1ccccc1)C(=O)N[C@@H](CCCNC(=N)N)C(=O)O)[C@@H](C)O [K532A]	24.8 µM
